Experimental data published in PubChem BioAssay AID256 (DTP/NCI, 2004).
Values joined by “and” are separate entries in the source; they are usually repeats but may differ in a detail not shown here. Equal entries are not always repeated. Inconclusive results and toxic doses are left out.

System: CD2F1 mice, L1210 leukemia ip, survival T/C
Test: NCI In Vivo Anticancer Drug Screen. Data for tumor model L1210 Leukemia (intraperitoneal) in CD2F1 (CDF1) mice
Details: endpoint: mean survival time, higher = longer survival
Outline: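 In this screen, transplantable tumors were grown in mice given either the compound or its vehicle. Results were expressed as the treated measurement relative to the control measurement.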

[1] = dose: 100.0 mg/kg/injection, schedule: Q04DX003 (ip), vehicle: water
[2] = dose: 100.0 mg/kg/injection, schedule: Q01DX009 (ip), vehicle: saline with Tween-80
[3] = dose: 100.0 mg/kg/injection, schedule: Q04DX003 (ip), vehicle: saline with Tween-80
[4] = dose: 200.0 mg/kg/injection, schedule: Q01DX009 (ip), vehicle: saline with Tween-80
[5] = dose: 200.0 mg/kg/injection, schedule: Q04DX003 (ip), vehicle: saline with Tween-80
[6] = dose: 400.0 mg/kg/injection, schedule: Q04DX003 (ip), vehicle: saline with Tween-80
[7] = dose: 25.0 mg/kg/injection, schedule: Q04DX002 (ip), vehicle: saline with Tween-80
[8] = dose: 50.0 mg/kg/injection, schedule: Q04DX002 (ip), vehicle: saline with Tween-80
[9] = dose: 100.0 mg/kg/injection, schedule: Q04DX002 (ip), vehicle: saline with Tween-80

c1cc2n(n1)CCN2 was tested, and the T/C (dose: 8.0 mg/kg/injection, schedule: Q03HX008 (ip), vehicle: saline) was 95 % of control, the T/C (dose: 8.0 mg/kg/injection, schedule: Q03HX016 (ip), vehicle: saline) was 96 % of control and the T/C (dose: 8.0 mg/kg/injection, schedule: Q03HX024 (ip), vehicle: saline) was 102 % of control. The T/C (dose: 16.0 mg/kg/injection, schedule: Q03HX008 (ip), vehicle: saline) was 98 % of control, the T/C (dose: 16.0 mg/kg/injection, schedule: Q03HX016 (ip), vehicle: saline) was 97 % of control and the T/C (dose: 16.0 mg/kg/injection, schedule: Q03HX024 (ip), vehicle: saline) was 104 % of control. For the same compound, the T/C (dose: 25.0 mg/kg/injection, schedule: Q01DX009 (ip), vehicle: saline) was 103 % of control, the T/C (dose: 32.0 mg/kg/injection, schedule: Q01DX005 (ip), vehicle: saline) was 100 % of control and the T/C (dose: 32.0 mg/kg/injection, schedule: Q03HX008 (ip), vehicle: saline) was 102 % of control. The T/C (dose: 32.0 mg/kg/injection, schedule: Q03HX016 (ip), vehicle: saline) was 98 % of control, the T/C (dose: 32.0 mg/kg/injection, schedule: Q03HX024 (ip), vehicle: saline) was 107 % of control and the T/C (dose: 50.0 mg/kg/injection, schedule: Q04DX003 (ip), vehicle: saline) was 98 % of control. The T/C (dose: 50.0 mg/kg/injection, schedule: Q04DX003 (iv), vehicle: saline) was 98 % of control, the T/C (dose: 64.0 mg/kg/injection, schedule: Q01DX005 (ip), vehicle: saline) was 103 % of control and the T/C (dose: 64.0 mg/kg/injection, schedule: Q01DX009 (ip), vehicle: saline) was 97 % of control. For the same compound, the T/C (dose: 64.0 mg/kg/injection, schedule: Q03HX008 (ip), vehicle: saline) was 109 % of control, the T/C (dose: 64.0 mg/kg/injection, schedule: Q03HX016 (ip), vehicle: saline) was 102 % of control and the T/C (dose: 64.0 mg/kg/injection, schedule: Q03HX024 (ip), vehicle: saline) was 116 % of control. The T/C (dose: 100.0 mg/kg/injection, schedule: Q01DX009 (ip), vehicle: saline) was 120 % of control, the T/C (dose: 100.0 mg/kg/injection, schedule: Q04DX003 (ip), vehicle: saline) was 102 % of control and the T/C [1] was 120 % of control and 105 % of control. For the same compound, the T/C (dose: 100.0 mg/kg/injection, schedule: Q04DX003 (iv), vehicle: saline) was 98 % of control, the T/C (dose: 128.0 mg/kg/injection, schedule: Q01DX001 (ip), vehicle: saline) was 104 % of control and the T/C (dose: 128.0 mg/kg/injection, schedule: Q01DX005 (ip), vehicle: saline) was 114 % of control. The T/C (dose: 128.0 mg/kg/injection, schedule: Q01DX009 (ip), vehicle: saline) was 122 % of control, the T/C (dose: 128.0 mg/kg/injection, schedule: Q04DX003 (ip), vehicle: saline) was 105 % of control and the T/C (dose: 128.0 mg/kg/injection, schedule: Q08DX002 (ip), vehicle: saline) was 104 % of control. For the same compound, the T/C (dose: 200.0 mg/kg/injection, schedule: Q01DX009 (ip), vehicle: saline) was 118 % of control, the T/C (dose: 200.0 mg/kg/injection, schedule: Q04DX003 (ip), vehicle: saline) was 108 % of control and the T/C (dose: 200.0 mg/kg/injection, schedule: Q04DX003 (ip), vehicle: water) was 115 % of control and 120 % of control. For the same compound, the T/C (dose: 200.0 mg/kg/injection, schedule: Q04DX003 (iv), vehicle: saline) was 101 % of control, the T/C (dose: 256.0 mg/kg/injection, schedule: Q01DX001 (ip), vehicle: saline) was 110 % of control and the T/C (dose: 256.0 mg/kg/injection, schedule: Q01DX005 (ip), vehicle: saline) was 107 % of control. For the same compound, the T/C (dose: 256.0 mg/kg/injection, schedule: Q01DX009 (ip), vehicle: saline) was 100 % of control, the T/C (dose: 256.0 mg/kg/injection, schedule: Q08DX002 (ip), vehicle: saline) was 106 % of control and the T/C (dose: 400.0 mg/kg/injection, schedule: Q04DX003 (ip), vehicle: saline) was 124 % of control. For the same compound, the T/C (dose: 400.0 mg/kg/injection, schedule: Q04DX003 (ip), vehicle: water) was 153 % of control, the T/C (dose: 512.0 mg/kg/injection, schedule: Q04DX003 (ip), vehicle: saline) was 159 % of control and the T/C (dose: 512.0 mg/kg/injection, schedule: Q08DX002 (ip), vehicle: saline) was 165 % of control. For the same compound, the T/C (dose: 600.0 mg/kg/injection, schedule: Q04DX003 (ip), vehicle: water) was 101 % of control.

C/C=C/c1ccc(OC(C)=O)c(OC)c1 was tested, and the T/C [2] was 100 % of control, the T/C [3] was 94 % of control and the T/C [4] was 94 % of control. The T/C [5] was 100 % of control, the T/C (dose: 400.0 mg/kg/injection, schedule: Q01DX009 (ip), vehicle: saline with Tween-80) was 105 % of control and the T/C [6] was 94 % of control.

CC(=O)Nc1nc(/C=C\c2ccc([N+](=O)[O-])cc2)c(CCCCc2ccccc2)c(=O)[nH]1 was tested, and the T/C (dose: 3.13 mg/kg/injection, schedule: Q01DX001 (ip), vehicle: saline with Tween-80) was 98 % of control, the T/C (dose: 6.25 mg/kg/injection, schedule: Q01DX001 (ip), vehicle: saline with Tween-80) was 96 % of control and the T/C (dose: 12.5 mg/kg/injection, schedule: Q01DX001 (ip), vehicle: saline with Tween-80) was 98 % of control.

For O=C(Nc1cc([N+](=O)[O-])ccc1O)C(O)c1ccccc1 (stereo unspecified), the T/C (dose: 12.5 mg/kg/injection, schedule: Q01DX009 (ip), vehicle: other) was 95 % of control, the T/C (dose: 25.0 mg/kg/injection, schedule: Q01DX009 (ip), vehicle: other) was 89 % of control and the T/C (dose: 50.0 mg/kg/injection, schedule: Q01DX009 (ip), vehicle: other) was 86 % of control. For the same compound, the T/C (dose: 100.0 mg/kg/injection, schedule: Q01DX009 (ip), vehicle: other) was 91 % of control and the T/C (dose: 200.0 mg/kg/injection, schedule: Q01DX009 (ip), vehicle: other) was 91 % of control.

For COC(=O)CCC(=O)c1cccc(C)c1, the T/C (dose: 200.0 mg/kg/injection, schedule: Q04DX003 (ip), vehicle: acetone) was 91 % of control and the T/C (dose: 400.0 mg/kg/injection, schedule: Q04DX003 (ip), vehicle: acetone) was 89 % of control.

For COc1ccccc1N=Nc1c(O)n(-c2ccccc2OC)c(=S)n(-c2ccc(Br)cc2)c1=O, the T/C [7] was 100 % of control, the T/C [8] was 100 % of control and the T/C [9] was 95 % of control.

With C[P+](CP(=O)(c1ccccc1)c1ccccc1)(c1ccccc1)c1ccccc1 the T/C [7] was 107 % of control, the T/C [8] was 92 % of control and the T/C [9] was 96 % of control.

For C/C=C\c1ccc(OCCOC(=O)Nc2ccc(C)cc2C)c(OC)c1, the T/C (dose: 50.0 mg/kg/injection, schedule: Q01DX009 (ip), vehicle: saline with Tween-80) was 104 % of control, the T/C [2] was 96 % of control and the T/C [4] was 93 % of control.

In the case of Cc1ccc(/C=N/N2C(=O)CSC2=S)cc1, the T/C (dose: 75.0 mg/kg/injection, schedule: Q01DX001 (ip), vehicle: other) is reported as 102 % of control and the T/C (dose: 150.0 mg/kg/injection, schedule: Q01DX001 (ip), vehicle: other) is reported as 97 % of control.

With N#CCN1CCc2ccccc2C1 the T/C (dose: 100.0 mg/kg/injection, schedule: Q04DX003 (ip), vehicle: Klucel (hydroxypropylcellulose) (HPC)) was 94 % of control and the T/C (dose: 200.0 mg/kg/injection, schedule: Q04DX003 (ip), vehicle: Klucel (hydroxypropylcellulose) (HPC)) was 94 % of control.

In the case of NC(CSS(=O)(=O)O)=NCCCCN=C(N)CSS(=O)(=O)O, the T/C (dose: 6.25 mg/kg/injection, schedule: Q04DX002 (ip), vehicle: saline with Tween-80) is reported as 103 % of control, the T/C (dose: 12.5 mg/kg/injection, schedule: Q04DX002 (ip), vehicle: saline with Tween-80) is reported as 106 % of control and the T/C [7] is reported as 95 % of control.

In the case of C[n+]1cccc(NC(=O)c2ccc(NC(=O)c3ccc(C(=O)Nc4ccc(NC(=N)N)cc4)cc3)cc2)c1, the T/C (dose: 1.3 mg/kg/injection, schedule: Q01DX009 (ip), vehicle: saline) is reported as 173 % of control, the T/C (dose: 2.0 mg/kg/injection, schedule: Q01DX009 (ip), vehicle: saline) is reported as 307 % of control and the T/C (dose: 3.0 mg/kg/injection, schedule: Q01DX009 (ip), vehicle: saline) is reported as 259 % of control. The T/C (dose: 8.0 mg/kg/injection, schedule: Q01DX009 (ip), vehicle: saline) was 115 % of control, the T/C (dose: 12.0 mg/kg/injection, schedule: Q01DX009 (ip), vehicle: saline) was 112 % of control and the T/C (dose: 18.0 mg/kg/injection, schedule: Q01DX009 (ip), vehicle: saline) was 97 % of control.

With Oc1ccc(C(O)(c2ccccc2)c2ccc(O)c3ccccc23)c2ccccc12 the T/C [3] was 102 % of control, the T/C [5] was 96 % of control and the T/C [6] was 103 % of control.

For Cn1c(=O)c2[n-]cnc2n(C)c1=O.[NH2-].[NH2-].[NH2-].[NH2-].[NH2-].[Ru+6], the T/C (dose: 6.25 mg/kg/injection, schedule: Q04DX003 (ip), vehicle: water) was 106 % of control, the T/C (dose: 12.5 mg/kg/injection, schedule: Q04DX003 (ip), vehicle: water) was 102 % of control and the T/C (dose: 25.0 mg/kg/injection, schedule: Q04DX003 (ip), vehicle: water) was 104 % of control. For the same compound, the T/C (dose: 50.0 mg/kg/injection, schedule: Q04DX003 (ip), vehicle: water) was 104 % of control and the T/C [1] was 104 % of control.
